Results as given in patent US6737383B1, “Herbicidal oxadiazolidines” (priority 1999, dated 2004).

Assays:
[1] = system: bedstraw; experiment: Test B pre/postemergence bedstraw; format: in vivo, Galium aparine
In short: (§1)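 Herbicidal effect was estimated by eye on a ten-point control scale after plants spent twelve to sixteen days in a greenhouse following soil or foliar treatment. Foliar sprays targeted plants at one to four leaves; all doses were formulated in a non-phytotoxic solvent with surfactant.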

[2] = system: blackgrass; experiment: Test B pre/postemergence blackgrass; format: in vivo, Alopecurus myosuroides
In short: as §1

[3] = system: surinam grass; experiment: Test B pre/postemergence surinam grass; format: in vivo, Brachiaria decumbens
In short: as §1

[4] = system: cocklebur; experiment: Test B pre/postemergence cocklebur; format: in vivo, Xanthium strumarium
In short: as §1

[5] = system: corn; experiment: Test B pre/postemergence corn; format: in vivo, Zea mays
In short: as §1

[6] = system: crabgrass; experiment: Test B pre/postemergence crabgrass; format: in vivo, Digitaria sanguinalis
In short: as §1

[7] = system: giant foxtail; experiment: Test B pre/postemergence giant foxtail; format: in vivo, Setaria faberii
In short: as §1

[8] = system: morningglory; experiment: Test B pre/postemergence morningglory; format: in vivo, Ipomoea hederacea
In short: as §1

[9] = system: soybean; experiment: Test B pre/postemergence soybean; format: in vivo, Glycine max
In short: as §1

[10] = system: velvetleaf; experiment: Test B pre/postemergence velvetleaf; format: in vivo, Abutilon theophrasti
In short: as §1

[11] = system: wheat; experiment: Test B pre/postemergence wheat; format: in vivo, Triticum aestivum
In short: as §1

[12] = system: wild oat; experiment: Test B pre/postemergence wild oat; format: in vivo, Avena fatua
In short: as §1

[13] = system: purple nutsedge; experiment: Test B pre/postemergence purple nutsedge; format: in vivo, Cyperus rotundus
In short: as §1

[14] = system: rice; experiment: Test B flood test rice; format: in vivo, Oryza sativa
In short: (§2)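 Flood test on plants grown to the 2-leaf stage; treated plants kept in greenhouse twelve to sixteen days, then visually rated against controls on a 0 (no effect) to 10 (complete control) scale.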

[15] = system: smallflower flatsedge; experiment: Test B flood test smallflower flatsedge; format: in vivo, Cyperus difformis
In short: as §2

[16] = system: duck salad; experiment: Test B flood test duck salad; format: in vivo, Heteranthera limosa
In short: as §2

[17] = system: bamyardgrass; experiment: Test B flood test barnyardgrass; format: in vivo, Echinochloa crus-galli
In short: as §2

[18] = Postemergence, Rate 62 g/ha, scale of 0 to 10, 0 is no effect, 10 is complete control
[19] = Postemergence, Rate 125 g/ha, scale 0 to 10, 0 is no effect, 10 is complete control
[20] = Postemergence, Rate 500 g/ha, scale 0 to 10, 0 is no effect, 10 is complete control
[21] = Preemergence, Rate 62 g/ha, scale of 0 to 10 where 0 is no effect and 10 is complete control
[22] = Rate 250 g/ha, Postemergence, scale of 0 to 10 where 0 is no effect and 10 is complete control
[23] = Preemergence, Rate 125 g/ha, scale 0 to 10, 0 is no effect, 10 is complete control
[24] = Preemergence, Rate 500 g/ha, scale of 0 to 10 where 0 is no effect and 10 is complete control
[25] = Rate 62 g/ha, flood test species, Pre-emergence, visual evaluation after twelve to sixteen days
[26] = Rate 125 g/ha, under heading Pre-emergence, flood test species, visual evaluation after twelve to sixteen days
[27] = Rate 250 g/ha, Pre-emergence (flood test species), scale 0 to 10, 0 is no effect, 10 is complete control
[28] = Rate 500 g/ha, Pre-emergence section of Table B, 0 to 10 scale (0 no effect, 10 complete control)

CC(C)N(C(=O)n1oc(=O)n(CCC2OCCO2)c1=O)c1ccc(Cl)cc1 [Compound 531]
Bedstraw plant response rating [1, 18]: 0
Bedstraw plant response rating [1, 19]: 0
Plant response rating, Bedstraw [1, 20]: 3
Plant response rating, Bedstraw [1, 21]: 0
Bedstraw plant response rating (0 to 10 scale) ([1]; Preemergence, Rate 250 g/ha): 0
Plant response rating, Bedstraw [1, 22]: 0
Blackgrass plant response rating [2, 18]: 0
Blackgrass plant response rating [2, 19]: 0
Plant response rating, Blackgrass [2, 20]: 6
Plant response rating, Blackgrass [2, 21]: 2
Blackgrass plant response rating [2, 23]: 9
Blackgrass plant response rating (0 to 10 scale) ([2]; Preemergence, Rate 250 g/ha): 9
Plant response rating, Blackgrass [2, 22]: 0
B. signalgrass plant response rating [3, 18]: 0
B. signalgrass plant response rating [3, 19]: 0
Plant response rating, B. signalgrass [3, 20]: 4
Plant response rating, B. signalgrass [3, 21]: 2
B. signalgrass plant response rating [3, 23]: 2
B. signalgrass plant response rating (0 to 10 scale, 0 is no effect, 10 is complete control) ([3]; Preemergence, Rate 250 g/ha): 2
Plant response rating, B. signalgrass [3, 22]: 0
Cocklebur plant response rating [4, 18]: 0
Cocklebur plant response rating [4, 19]: 0
Plant response rating, Cocklebur [4, 20]: 5
Plant response rating, Cocklebur [4, 21]: 0
Cocklebur plant response rating [4, 23]: 0
Cocklebur plant response rating (0 to 10 scale) ([4]; Preemergence, Rate 250 g/ha): 0
Cocklebur plant response rating [4, 24]: 0
Plant response rating, Cocklebur [4, 22]: 2
Corn plant response rating [5, 18]: 0
Corn plant response rating [5, 19]: 0
Plant response rating, Corn [5, 20]: 0
Plant response rating, Corn [5, 21]: 0
Corn plant response rating [5, 23]: 0
Corn plant response rating (0 to 10 scale) ([5]; Preemergence, Rate 250 g/ha): 0
Corn plant response rating [5, 24]: 0
Plant response rating, Corn [5, 22]: 0
Crabgrass plant response rating [6, 18]: 2
Crabgrass plant response rating [6, 19]: 8
Plant response rating, Crabgrass [6, 20]: 10
Plant response rating, Crabgrass [6, 21]: 8
Crabgrass plant response rating [6, 23]: 10
Crabgrass plant response rating (0 to 10 scale) ([6]; Preemergence, Rate 250 g/ha): 10
Crabgrass plant response rating [6, 24]: 10
Plant response rating, Crabgrass [6, 22]: 9
Giant foxtail plant response rating [7, 18]: 0
Giant foxtail plant response rating [7, 19]: 8
Plant response rating, Giant foxtail [7, 20]: 9
Plant response rating, Giant foxtail [7, 21]: 9
Giant foxtail plant response rating [7, 23]: 10
Giant foxtail plant response rating (0 to 10 scale) ([7]; Preemergence, Rate 250 g/ha): 10
Giant foxtail plant response rating [7, 24]: 10
Plant response rating, Giant foxtail [7, 22]: 9
Morningglory plant response rating [8, 18]: 2
Morningglory plant response rating [8, 19]: 4
Plant response rating, Morningglory [8, 21]: 0
Morningglory plant response rating [8, 23]: 0
Morningglory plant response rating (0 to 10 scale) ([8]; Preemergence, Rate 250 g/ha): 0
Morningglory plant response rating [8, 24]: 0
Plant response rating, Morningglory [8, 22]: 4
Soybean plant response rating [9, 18]: 3
Soybean plant response rating [9, 19]: 3
Plant response rating, Soybean [9, 20]: 6
Plant response rating, Soybean [9, 21]: 0
Soybean plant response rating [9, 23]: 0
Soybean plant response rating (0 to 10 scale) ([9]; Preemergence, Rate 250 g/ha): 0
Soybean plant response rating [9, 24]: 0
Plant response rating, Soybean [9, 22]: 6
Velvetleaf plant response rating [10, 18]: 0
Velvetleaf plant response rating [10, 19]: 0
Plant response rating, Velvetleaf [10, 20]: 3
Plant response rating, Velvetleaf [10, 21]: 0
Velvetleaf plant response rating [10, 23]: 0
Velvetleaf plant response rating (0 to 10 scale) ([10]; Preemergence, Rate 250 g/ha): 2
Velvetleaf plant response rating [10, 24]: 5
Plant response rating, Velvetleaf [10, 22]: 0
Wheat plant response rating [11, 18]: 0
Wheat plant response rating [11, 19]: 0
Plant response rating, Wheat [11, 20]: 0
Plant response rating, Wheat [11, 21]: 0
Wheat plant response rating [11, 23]: 0
Wheat plant response rating (0 to 10 scale) ([11]; Preemergence, Rate 250 g/ha): 0
Plant response rating, Wheat [11, 22]: 0
Wild oats plant response rating [12, 18]: 0
Wild oats plant response rating [12, 19]: 0
Plant response rating, Wild oats [12, 20]: 0
Plant response rating, Wild oats [12, 21]: 0
Wild oats plant response rating [12, 23]: 0
Wild oats plant response rating (0 to 10 scale) ([12]; Preemergence, Rate 250 g/ha): 0
Plant response rating, Wild oats [12, 22]: 0
Nutsedge plant response rating [13, 18]: 0
Nutsedge plant response rating [13, 19]: 0
Plant response rating, Nutsedge [13, 20]: 3
Plant response rating, Nutsedge [13, 21]: 0
Nutsedge plant response rating [13, 23]: 0
Nutsedge plant response rating (0 to 10 scale) ([13]; Preemergence, Rate 250 g/ha): 0
Nutsedge plant response rating [13, 24]: 0
Plant response rating, Nutsedge [13, 22]: 0
Plant response rating, Rice (0 to 10 scale, 0 is no effect, 10 is complete control) [14, 25]: 0
Rice plant response rating (0 to 10 scale, 0 is no effect, 10 is complete control) [14, 26]: 0
Rice plant response rating [14, 27]: 0
Rice plant response rating [14, 28]: 0
Plant response rating, S. Flatsedge (0 to 10 scale, 0 is no effect, 10 is complete control) [15, 25]: 0
S. Flatsedge plant response rating (0 to 10 scale, 0 is no effect, 10 is complete control) [15, 26]: 0
S. Flatsedge plant response rating [15, 27]: 0
S. Flatsedge plant response rating [15, 28]: 0
Plant response rating, Ducksalad (0 to 10 scale, 0 is no effect, 10 is complete control) [16, 25]: 0
Ducksalad plant response rating (0 to 10 scale, 0 is no effect, 10 is complete control) [16, 26]: 0
Ducksalad plant response rating [16, 27]: 0
Ducksalad plant response rating [16, 28]: 0
Plant response rating, Barnyardgrass (0 to 10 scale, 0 is no effect, 10 is complete control) [17, 25]: 0
Barnyardgrass plant response rating (0 to 10 scale, 0 is no effect, 10 is complete control) [17, 26]: 0
Barnyardgrass plant response rating [17, 27]: 0
Barnyardgrass plant response rating [17, 28]: 0
